Where two headings read alike, the source gives them in different places.

Assay [1] deals with T1, α-glucosidase (Saccharomyces cerevisiae, UniProt P53341).
T1 construct: purchased Sigma-Aldrich G5003
The assay can be described thus: biochemical. As to conditions: for IC50: mean ± SD, n = 3, linear regression. The protocol: A specific spray reagent, citroborate (5 g citric acid, 5 g boric acid, and 100 mL ethanol), and 10% (v/v) H2SO4 in a MeOH solution were used to identify flavonoids and other compounds. Additionally, during extraction and separation, the entire solvents were distilled before use, making them of technical grade.
Alpha-glucosidase inhibition was assessed using the adopted method with slight modifications. Phosphate buffer solution (36 μL), a sample solution with different concentrations ([…]), and pNPG substrate with 6 mM concentration (17 μL) were successively added to 96 microplate wells. The incubation of this mixture was performed at 37 °C for 5 min. In each well, 17 μL of alpha-glucosidase solution at 0.2 U/mL was added to obtain a total volume of […], which was followed by incubation at 37 °C for 15 min. Furthermore, the initial reaction was brought to completion by the addition of Na2CO3 solution (100 μL) at 200 mM. […] Percentage inhibition was used to express the inhibitory activity of alpha-glucosidase, while the calculation followed the formula below:
Inhibition percentage (%) = (B1–B2)/B1 × 100%.
B1 = Blank absorbance * − control of blank absorbance **
B2 = Sample absorbance − control of sample absorbance ***
The IC50 was calculated using a linear regression equation (y = a + bx) in which the sample concentration was represented on the x-axis and the percentage inhibition was represented on the y-axis.

The subject of assay [2] is alpha-glucosidase. Further details: method as in PMID 35215317. Conditions: cited from earlier work.

T1 sequence (P53341 whole entry): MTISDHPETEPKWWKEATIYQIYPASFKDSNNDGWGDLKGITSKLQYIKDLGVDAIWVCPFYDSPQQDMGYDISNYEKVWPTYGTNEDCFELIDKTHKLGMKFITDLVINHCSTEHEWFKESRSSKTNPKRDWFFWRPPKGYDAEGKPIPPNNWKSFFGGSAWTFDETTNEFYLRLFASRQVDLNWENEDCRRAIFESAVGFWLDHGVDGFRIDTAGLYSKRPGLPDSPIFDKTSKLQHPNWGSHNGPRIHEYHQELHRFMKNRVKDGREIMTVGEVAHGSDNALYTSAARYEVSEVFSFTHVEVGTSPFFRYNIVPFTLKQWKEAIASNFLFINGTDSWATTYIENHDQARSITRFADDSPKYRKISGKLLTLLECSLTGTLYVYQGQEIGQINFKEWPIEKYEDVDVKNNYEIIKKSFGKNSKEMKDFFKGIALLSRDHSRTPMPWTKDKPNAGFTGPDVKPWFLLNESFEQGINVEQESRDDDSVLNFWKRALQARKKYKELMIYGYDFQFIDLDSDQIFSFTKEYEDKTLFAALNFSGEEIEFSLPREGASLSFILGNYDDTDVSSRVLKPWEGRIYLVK

As to `C[C@H]1O[C@H](O[C@H]2[C@H](O)[C@@H](O)[C@@H](O[C@H]3[C@H](O)[C@@H](O)C(O)O[C@@H]3CO)O[C@@H]2CO)[C@H](O)[C@@H](O)[C@@H]1N[C@H]1C=C(CO)[C@@H](O)[C@H](O)[C@H]1O` (stereo partly shown) [Acarbose, acarbose], in assay [1], the inhibition at 100 µg/mL was 42.13 ± 0.12% and the inhibition at 200 µg/mL was 66 ± 1.11%. In addition, in assay [1] (read-out: Inhibition (in %)), the inhibition at 100 µg/mL turned out to be 43.1 ± 0.92% and the inhibition at 200 µg/mL is 66.8 ± 2.11%.
On to `O=c1cc(-c2ccc(O)c(O)c2)oc2cc(O)cc(O)c12` [Compound 1, 2-(3,4-dihydroxyphenyl)-5,7-dihydroxy-4H-chromen-4-one], for which the inhibition mechanism type entry in assay [2] is “non-competitive”. This molecule gave a 50% inhibitory concentration (IC50) in assay [1] of 22.8 µM.
Consider `COc1c(-c2ccc(O)c(O)c2)oc2cc(O)cc(O)c2c1=O` [Compound 2, 2-(3,4-dihydroxyphenyl)-5,7-dihydroxy-3-methoxy-4H-chromen-4-one], for which, in assay [1], inhibition was half-maximal at 126 µM (IC50).

What is called inhibition is the share of the control response that was lost under treatment. A word on the IC50: it is the concentration needed to halve the response being measured. A lower IC50 goes with greater potency.

Values taken from publication PMC9000735, “In Vitro Alpha-Glucosidase Inhibitory Activity and the Isolation of Luteolin from the Flower of Gymnanthemum amygdalinum (Delile) Sch. Bip ex Walp” (Molecules, 2022).
